The values that follow come from patent US20240180158A1, “COMPOUNDS HAVING SELECTIVE INACTIVATION ACTIVITY” (University of North Carolina at Wilmington, priority 2021, published 2024).

Counter-ions that a name gives are not always drawn. Like-named read-outs stand apart in the source and are kept apart here.

In assay [1] the test system is S. aureus. The experiment in a line: Disk diffusion assay, S. aureus. The assay is classed as cell-based. On the procedure: (§1) The following disk diffusion assays were performed with example compounds described above to assess the ability of compounds to inhibit growth of microorganism. A compound that inhibits its target enzyme may perform poorly for a number of reasons, including low solubility in water or slow rate of transport across a microbial membrane.
(In general: In agar diffusion tests the substance spreads into inoculated agar from a disc or well.)

Assay [2] concerns K pneumoniae. The experiment in a line: Disk diffusion assay, K pneumoniae. The assay is classed as cell-based. On the procedure:
as §1

The target in assay [3] is T1, CalASADH (Candida albicans, UniProt Q5ALM0).
T1 construct: His tag; made in house
T1 sequence (Q5ALM0 1-365): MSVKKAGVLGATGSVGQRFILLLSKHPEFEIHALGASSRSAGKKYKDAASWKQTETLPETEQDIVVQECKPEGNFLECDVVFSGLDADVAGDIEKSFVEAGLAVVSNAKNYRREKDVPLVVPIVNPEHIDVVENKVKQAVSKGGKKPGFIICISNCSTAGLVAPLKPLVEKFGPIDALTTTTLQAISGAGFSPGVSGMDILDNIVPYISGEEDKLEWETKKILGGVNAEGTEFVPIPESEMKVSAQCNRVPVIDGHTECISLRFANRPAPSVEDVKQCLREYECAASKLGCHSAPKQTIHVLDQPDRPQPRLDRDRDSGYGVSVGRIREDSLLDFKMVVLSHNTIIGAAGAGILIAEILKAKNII
The experiment in a line: Reversibility of CalASADH inactivation by exogenous thiols. The assay is classed as biochemical. As to conditions: incubated 10 min, read-out: residual activity of CalASADH. Here is the method: This loss of activity supports the hypothesis that these vinyl sulfones are covalently modifying this enzyme. To determine whether this inactivation can be reversed by the introduction of an exogenous nucleophile a large excess of either cysteine (5 mM) or glutathione (10 mM) was added to the reaction mixture after incubation, and the activity of this inactivated enzyme was then monitored. Samples of CalASADH that had been incubated either with 3 μM 4-(methylvinylsulfonyl)nitrobenzene or with 100 μM 3-(phenylsulfonyl)acrylic acid for 10 min were measured to have from 5 to 10% residual activity. At this point, after either cysteine or glutathione was added to each reaction mixture, the residual enzyme activity was monitored as described above.

In assay [4] the target is T2, Candida albicans ASADH (CalASADH), aspartate semialdehyde dehydrogenase, his-tagged (Candida albicans, UniProt Q5ALM0).
T2 construct: His tag; made in house
T2 sequence (Q5ALM0 1-365): T1 sequence (Q5ALM0 1-365)
The experiment in a line: Inhibition/time-dependent inactivation of Candida albicans ASADH by vinyl sulfones (purified his-tagged enzyme; NADPH production at 340 nm). The assay is classed as biochemical. The settings on record: FIG. 5; pH 8.6, 25° C., 0.3 mM ASA, 1.5 mM NADP, 20 mM phosphate; irreversible covalent inactivators. On the procedure:
FIG. 5 is a table showing the affinities and the rates of inactivation of example vinyl sulfones as inactivators of a fungal ASADH, in accordance with some embodiments of the present technology;
Their initial inhibition potencies (Ki values) were determined by varying the concentration of each vinyl sulfone in the presence of fixed, non-saturating substrate levels.
Aryl vinyl sulfones can be reasonably potent inhibitors of CalASADH, each inhibitor was then tested to determine if it would function as an enzyme inactivator. […] In most cases the residual enzyme activity, measured following a subsequent 20-fold dilution into an assay mixture, decreased to less than 5% of the control rate after incubation with low micromolar levels of these inactivators for 10 min or less. To determine the rate of inactivation the concentration of each vinyl sulfone in this pre-incubation mixture was then varied, centered around their initial measured Ki values. The rate of activity loss observed in each incubation reaction (kobs) was plotted against the inhibitor concentration to determine the inactivation rate (kinact) for that compound and the concentration that produces half-maximal inactivation (Ki). […] The proposed product of the reaction of the active site nucleophile (Cys-156) with this inactivator predicts key interactions of the p-nitro group with Arg-18 and Ser-187, and the protonation of the covalent intermediate by His-256. […] Reaction of this inactivator with the active site nucleophile (Cys-156) predicts keys interactions between its carboxyl group and several backbone amide nitrogens that would shift this adduct further from the active site base (His-256). FIG. 3 illustrates inactivation of Candida albicans ASADH by 4-(methylvinylsulfonyl)nitrobenzene. Plot of the natural log of the ratio of enzyme activity at each time point over the initial enzyme activity, showing the loss of activity as a functional of incubation time for different concentrations of inactivator: 0 μM, 0.75 μM, 1.5 μM, 3 μM, 6 μM. The resulting observed rates at each concentration (kobs) were plotted against the inactivator concentration and a non-linear fit to these replotted data yielded the rate of inactivation (kinact) and the inhibition constant (Ki).
The ASADH from Candida albicans (CalASADH) was purified using an ÄKTA chromatography system as previously described (Arachea et al., 2010), with only minor modifications. A nickel-immobilized metal affinity (IMAC) column was used for the purification of the his-tagged enzyme, with an initial buffer wash containing 20 mM imidazole to remove loosely bound proteins before elution with a 20 to 400 mM imidazole gradient. The enzyme activity was assayed at 25° C. by following the production of NADPH at 340 nm in a SpectraMax 190 plate reader (Molecular Devices). Enzyme inhibitors were evaluated by the same assay in the presence of 120 mM CHES buffer, pH 8.6, with 120 mM KCl, 0.3 mM ASA, 1.5 mM NADP, 20 mM phosphate and varying concentrations of each potential inhibitory compound to be tested. The data were fitted to a competitive inhibitor model which corrects for the levels of substrates present relative to their individual Km values.
To examine the possibility of enzyme inactivation each vinyl sulfone compound was incubated in a defined concentration range with 30 μg/ml of CalASADH, with the inhibitor concentrations grouped around their determined Ki values. Aliquots (10 μl) were removed from the enzyme-inhibitor reaction mixture at various times ranging from 30 secs to 60 min, with most compounds examined from 1 to 10 min at 2 min intervals. Each aliquot was then added to a 190 μl of the same assay mixture as described above for the inhibition studies to measure the residual enzyme activity. […]

The target in assay [5] is Vibrio cholera ASADH (V. cholera ASADH), aspartate semialdehyde dehydrogenase. The experiment in a line: Inactivation of the bacterial ASADH ortholog from Vibrio cholera by vinyl sulfones (comparison with the fungal enzyme). The assay is classed as biochemical. As to conditions: FIG. 6, irreversible covalent inactivators. An excerpt:
FIG. 6 is a table showing a comparison of the differences in affinities and rates of inactivation of example vinyl sulfones as inactivators of either a bacterial or a fungal ASADH, in accordance with some embodiments of the present technology; and
Enhanced reactivity upon binding to an enzyme target is a desirable property if these vinyl sulfones are to serve as effective antifungal agents. However, increased selectivity in target binding is equally important. […] The ASADH from the […] bacterium Vibrio cholera has >90% overall sequence homology to the C. albicans enzyme, with the exception of a helical domain insert (Arachea et al., 2010), and all of the essential active site functional amino acids are fully conserved between these enzyme forms. Five different vinyl sulfones that span the fungal ASADH potency spectrum were selected and examined as potential inactivators of the bacterial ASADH. […] However, importantly, several of these compounds already show some level of discrimination between the fungal and bacterial ASADHs (Table 3).
Ideally, any antifungal agent should have high specificity, interacting only with its intended target. […] Each of the vinyl sulfones that were examined as inactivators of a fungal ASADH were also found to inactivate the bacterial ASADH ortholog, but several of them do so with lower efficiencies. In particular, the best fungal ASADH inactivators with a polar functional group at the 4-position of the benzyl ring are from 7 to 9-fold less efficient when examined as bacterial ASADH inactivators (See e.g. Table 3). By contrast, the inactivators with this polar group in the 2- or 3-position show no significant differences in reactivity between the fungal and bacterial forms of ASADH. The respective active sites of these two ASADH orthologs are virtually identical. However, a conserved arginine (Arg-18) found in fungal ASADH that is proposed to interact with the 4-nitro or the 4-carboxy groups in these inactivators (FIG. 1) is replaced with either a valine or a threonine in the bacterial ASADH family.
The ASADH from Candida albicans (CalASADH) was purified using an ÄKTA chromatography system as previously described (Arachea et al., 2010), with only minor modifications. […] The enzyme activity was assayed at 25° C. by following the production of NADPH at 340 nm in a SpectraMax 190 plate reader (Molecular Devices). Enzyme inhibitors were evaluated by the same assay in the presence of 120 mM CHES buffer, pH 8.6, with 120 mM KCl, 0.3 mM ASA, 1.5 mM NADP, 20 mM phosphate and varying concentrations of each potential inhibitory compound to be tested. […]

Assay [6] has as its target C. auris ASADH (Candidozyma auris, UniProt A0A2H0ZN20). The assay is described as follows: C. auris ASADH irreversible inhibition. The assay is classed as biochemical. On the procedure: These amino acid analogs may be synthesized in accordance with various techniques and schemes provided herein. Two are vinyl sulfones and one is an acrylamide. Accordingly, the core functional group of compounds described herein can be at least one of a vinyl sulfone and/or an acrylamide. The vinyl sulfones were tested against C. auris ASADH as irreversible inhibitors.

C. auris ASADH, sequence (A0A2H0ZN20 entry or part of it): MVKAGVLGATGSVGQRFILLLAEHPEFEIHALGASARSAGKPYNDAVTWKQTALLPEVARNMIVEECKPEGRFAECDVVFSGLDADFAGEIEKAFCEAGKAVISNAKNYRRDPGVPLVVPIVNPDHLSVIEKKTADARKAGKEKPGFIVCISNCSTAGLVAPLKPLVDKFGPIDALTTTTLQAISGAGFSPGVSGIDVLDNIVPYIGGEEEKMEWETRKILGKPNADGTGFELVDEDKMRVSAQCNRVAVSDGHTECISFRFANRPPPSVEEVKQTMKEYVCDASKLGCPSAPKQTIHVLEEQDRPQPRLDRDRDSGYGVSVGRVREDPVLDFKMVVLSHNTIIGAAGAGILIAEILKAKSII

For the compound `CS(=O)(=O)/C=C/c1cc(O)ccc1O` [2-MSV-dihydroxbenzene, 2-(S-methylsulfonylvinyl)1,4-dihydroxybenzene], in assay [1] (aromatic compounds), the “disk diffusion, S. aureus” value is reported as “medium”. Further, the “disk diffusion, K pneumoniae” value in assay [2] (aromatic compounds) is “weak”. Consider `O=C(O)/C=C/S(=O)(=O)c1ccccc1` [3-(phenylsulfonyl)acrylic acid], for which the remaining activity at 100 µM in assay [3] (100 μM) was in the range of 5 to 10%. For `CS(=O)(=O)/C=C/c1ccc([N+](=O)[O-])cc1` [4-(methylvinylsulfonyl)nitrobenzene, 4-(methylsulfonylvinyl)nitrobenzene], the remaining activity at 3 µM in assay [3] (3 μM) fell in the range of 5 to 10%. Regarding `CS(=O)(=O)/C=C/c1ccc(C(=O)O)cc1` [Compound 1, 4-(methylsulfonylvinyl)benzoic acid], the Ki amounted to 0.78 ± 0.1 µM in assay [4] and 4.45 ± 0.25 µM in assay [5]. Taken in the same sequence, the figures for `CS(=O)(=O)/C=C/c1ccc([N+](=O)[O-])cc1` [Compound 2, 4-(methylsulfonylvinyl)nitrobenzene] were 1.02 ± 0.28 µM and 6.29 ± 0.59 µM. With `CS(=O)(=O)/C=C/c1ccccn1` [Compound 3, 2-(methylsulfonylvinyl)pyridine], the Ki in assay [4] turned out to be 2.64 ± 0.22 µM. With `CS(=O)(=O)/C=C/c1ccc(O)c(O)c1` [Compound 4, 4-(methylsulfonylvinyl)-1,2-benzenediol], in assay [4], the Ki worked out at 3.52 ± 0.42 µM. Compound `O=S(=O)(/C=C/c1ccncc1)c1ccccc1` [Compound 5, 4-(phenylsulfonylvinyl)pyridine] had a Ki in assay [4] of 2.16 ± 0.24 µM. In assay [4], `CS(=O)(=O)/C=C/c1ccccc1` [Compound 6, Methylsulfonylvinylbenzene] registered a Ki of 4.26 ± 0.83 µM. As for `O=S(=O)(/C=C/c1ccccc1)C(F)(F)F` [Compound 7, Trifluoromethylsulfonylvinylbenzene], the Ki in assay [4] amounted to 21.7 ± 8 µM.

As for `O=S(=O)(/C=C/c1ccccn1)c1ccccc1` [Compound 8, 2-(Phenylsulfonylvinyl)pyridine], the Ki in assay [4] stood at 8.49 ± 0.94 µM. On the same count and under the same terms, the figure for `CS(=O)(=O)/C=C/c1ccncc1` [Compound 9, 4-(methylsulfonylvinyl)pyridine] is 5.69 ± 0.78 µM; for `CS(=O)(=O)/C=C/c1cccnc1` [Compound 10, 3-(methylsulfonylvinyl)pyridine] it is 25.1 ± 6.8 µM.

With `O=S(=O)(/C=C/c1cccnc1)c1ccccc1` [Compound 11, 3-(Phenylsulfonylvinyl)pyridine], the Ki in assay [4] came out at 42.2 ± 3 µM. In the case of `CS(=O)(=O)/C=C/c1cccc([N+](=O)[O-])c1` [Compound 12, 3-(methylsulfonylvinyl)nitrobenzene], the Ki was determined as 19.6 ± 1.4 µM in assay [4] and 10.3 ± 2.3 µM in assay [5]. The compound `CS(=O)(=O)/C=C/c1cccc(C(=O)O)c1` [Compound 13, 3-(methylsulfonylvinyl)benzoic acid] came in with a Ki in assay [4] of 36.9 ± 6.2 µM. On to `CS(=O)(=O)/C=C/c1ccccc1[N+](=O)[O-]` [Compound 14, 2-(methylsulfonylvinyl)nitrobenzene], for which the values for the Ki in assay [4] and in assay [5] were 56.7 ± 2.7 µM and 2.57 ± 0.23 µM, respectively.

In the case of `O=C(O)/C=C/S(=O)(=O)c1ccccc1` [Compound 15, 3-(phenylsulfonyl)acrylic acid], in assay [4], the Ki stood at 67.1 ± 15.8 µM.

For the compound `CS(=O)(=O)/C=C/C(N)=O` [MeSAm, 3-S-Methylsulfonylacrylamide], in assay [1] (vinyl sulfone carboxamides), the “disk diffusion, S. aureus” value is “strong”. The “disk diffusion, K pneumoniae” value in assay [2] (vinyl sulfone carboxamides) is reported as “strong”.

On to `NC(=O)/C=C/S(=O)(=O)c1ccccc1` [PhSAm, 3-S-Phenylsulfonylacrylamide], for which the “disk diffusion, S. aureus” value in assay [1] (vinyl sulfone carboxamides) was “strong”. Also, the “disk diffusion, K pneumoniae” value in assay [2] (vinyl sulfone carboxamides) is recorded as “strong”. Consider `NC(C/C=C/S(=O)(=O)Cc1ccccc1)C(=O)O` (centres unmarked) [S-benzylsulfonylvinylalanine, 3-(benzylsulfonylvinyl)-alanine hydrochloride], for which the Ki in assay [6] was found to be 0.3 µM.

`CS(=O)(=O)C=CC[C@H](N)C(=O)O` [S-methylsulfonylvinylacrylamide, 3-(S-methylsulfonylvinyl)-alanine hydrochloride]: in assay [6] (irreversible inhibitors, read-out: inhibitory constant), the Ki was 0.1 µM.
